According to publication PMC12191924, “A new naphthalene-based fluorogenic substrate for cytochrome P450 4A11” (Biochemical Journal, 2025):
Entries after “also recorded” stand apart in the source; their conditions may differ.

System: 16 human microsomal P450 enzymes
Experiment: Probing MONACRA metabolism by 16 recombinant human P450 enzymes
Assay type: biochemical
Details: CYP1A2, 2A6, 2B6, 2C8, 2C9, 2C19, 2D6, 2E1, 2J2, 3A4, 3A5, 4A11, 4F2, 4F3A, 4F3B, 4F12
Protocol: Based on these observations, we developed a high-throughput automated assay applicable for studying SSPs of MONACRA metabolism by microsomal P450 enzymes. In this procedure, the incubation mixtures containing an NADPH-generating system and various substrate concentrations are placed in a multiwell plate and preincubated at 30°C in a thermostated shaker. The reaction is started by adding microsomal suspension to the final concentration of 0.3–1 mg/ml of microsomal protein or 0.02–0.1 µM of recombinant P450 enzymes in Supersomes. Following the incubation for 20 min at 30°C, the reaction is quenched by adding trichloroacetic acid (final concentration […]). After supplementing the wells with Na-glycine buffer (pH 10.4, final concentration 2.1 M), the plates are subjected to scanning the fluorescence spectra with excitation at 375 nm. This assay, which is described in detail in Materials and Methods, allows reliable detection of the concentrations of HONACRA as low as 0.1 µM.
We used the high-throughput activity assay described above to probe MONACRA metabolism by 16 human microsomal P450 enzymes, namely CYP1A2, CYP2A6, CYP2B6, CYP2C8, CYP2C9, CYP2C19, CYP2D6, CYP2E1, CYP2J2, CYP3A4, CYP3A5, CYP4A11, CYP4F2, CYP4F3A, CYP4F3B, and CYP4F12. […]

Compound: COc1ccc2cc(C=CC(=O)O)ccc2c1 [MONACRA, 3-(6-methoxynaphthalen-2-yl)acrylic acid]
- activity in MONACRA demethylation among 16 recombinant human P450 enzymes: noticeable demethylation activity only with CYP4A11 and CYP1A2; also recorded: detectable activity in MONACRA demethylation was observed only with CYP4A11, CYP1A2, and CYP2C8
